According to patent US20250304623A1, “PEPTIDES FOR INTRACELLULAR DELIVERY” (UNIVERSIDADE DE SANTIAGO DE COMPOSTELA, priority 2022, published 2025):
Starred links: 1 amine or outer side, 2 acyl side, 3 side chain; linkers in the order of their positions; H or OH if unused. Residues, ends and D or L forms follow the SMILES beside them. Groups on a side chain read outwards from the residue. *: point of attachment. Glutaryl = O=C(CCCC(=O)[*:2])[*:1]; NHNH2 = NN*

Columns and labels:
Format in all cases: cell-based
[1] = system: HepG2 cells; assay: RLuc pDNA delivery, robotic library screening, HepG2
Method in brief: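 After the 4 h exposure the complexes were replaced with fresh DMEM plus 10% FBS. At 72 hours cells were washed with HBSS, kept 30 minutes at 37° C. for basal readings, then given coelenterazine h (5 μM final) for 10 minutes before total luminescence was read. Triplicate means had untransfected background subtracted and were also expressed relative to Lipofectamine® 2000 set at 1.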

[2] = system: HepG2 cells; assay: EGFP mRNA delivery, robotic library screening, HepG2; settings: for mean fluorescence intensity after transfection of EGFP mRNA: HepG2 cells
Method in brief: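 This robotic library screen tested delivery of CleanCap EGFP mRNA (5moU) into HepG2 cells using amphiphilic molecules. Complexes were freshly prepared at room temperature and added to the cells, and the medium was then replaced with fresh DMEM plus 10% FBS. Total EGFP fluorescence was measured in a plate reader at 72 h in triplicate, with untreated-cell background subtracted.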

[3] = system: ARPE19 cells expressing EGFP; assay: EGFP-targeting siRNA delivery (GFP silencing vs siMOCK), ARPE19
Protocol: (§1) To generate an EGFP expressing HeLa cell line, HeLa cells were transfected with EGFP pDNA (pEGFP-C1, Clontech) and stable transfectants were selected with 400 μg/mL of G-418 (Millipore). Green clones were selected by epifluorescence microscopy and tested for EGFP expression stability through several passages. […] All other EGFP-expressing cell lines were obtained in a similar way from parent non-EGFP-expressing cell lines.
(§2) Cells expressing EGFP were seeded in a 96 well plate the day before the experiment at a concentration of 50,000 cell/mL (100 μL/w) in DMEM+10% FBS+1% Gln-Abt. For robotic library screening, the delivery of an EGFP-targeting siRNA (EGFP: enhanced green fluorescent protein, Ambion® Silencer® GFP Positive Control siRNA (siGFP) (AM4626)) in six different cell lines expressing EGFP was performed. […] The mixture was shaken for 30 min at room temperature (rt) before the addition to the cells. The cell medium was aspirated, and cells were washed twice with PBS. Finally, 50 μL of the solution of siRNA/amphiphile complexes were added to the cells and incubated for 4 h. After transfection, the medium was replaced by 100 μL of fresh DMEM supplemented with 10% FBS. The fluorescence knockdown was quantified after 72 h in a plate reader, by comparison with cells transfected with a non-targeting siRNA control (siMOCK, Silencer™ Negative Control No. 1 siRNA (siMOCK) (AM4611)). EGFP knockdown was compared with Lipofectamine® RNAiMAX silencing efficiency (30-60% depending on cell line, defined with a numeric value in the below tables). All experiments were done in triplicate.
(§3) Tables 1-7: RLuc (pDNA) or EGFP (mRNA) expression levels were normalized to Lipofectamine reagents (value=1) and expressed as fold-times signal increase. In the case of siRNA, the siRNA treated cells fluorescence was compared with siMOCK control fluorescence, while Cas9-RNP mediated knockout was measured against the fluorescence of untreated cells. In both siRNA and Cas9-RNP, values are expressed as % fluorescence reduction. Amphiphile concentration was 5 μM in all cases. All experiments were performed in triplicate.
(§4) Tables 20-25 show the mean (triplicates) percentage of GFP-silencing, accounted by fluorescence intensity decrease relative to a non-targeting siRNA (siMOCK) control, measured after the transfection of siRNA by different amphiphiles at different concentrations in a variety of cell lines. Background values, accounted by untreated control cells, were subtracted for processing.

[4] = system: Hek293 cells expressing EGFP; assay: EGFP-targeting siRNA delivery (GFP silencing vs siMOCK), Hek293
Protocol: as §1, §2, §3, §4

Ac-RRHK*RLK*RRLK*RL-NH2 (Ac-RRHK(NHNH2)RLK(NHNH2)RRLK(NHNH2)RL-NH2; not fully specified; printed as Ac-RRHK*RLK*RRLK*RL-NH2; also: K*4,K*7,K*11: native or modified lysine (ε-amide to a linker)) [13(Leu-His)]
mean luminescent intensity (RLuc pDNA) ([1]; Dodecanal, 10 μM): 12080 RLU | mean luminescent intensity (RLuc pDNA) ([1]; Dodecanal, 15 μM): 73505 RLU | mean luminescent intensity (RLuc pDNA) ([1]; Myristoleyl, 10 μM): 61828 RLU | mean luminescent intensity (RLuc pDNA) ([1]; Myristoleyl, 15 μM): 35356 RLU | mean luminescent intensity (RLuc pDNA) ([1]; Oleyl, 5 μM): 116466 RLU | mean luminescent intensity (RLuc pDNA) ([1]; Palmitoleyl, 10 μM): 71476 RLU | mean fluorescence intensity after transfection of EGFP mRNA ([2]; Myristoleyl, 5 μM): 2950 | mean fluorescence intensity after transfection of EGFP mRNA ([2]; Myristoleyl, 15 μM): 308 | mean fluorescence intensity after transfection of EGFP mRNA ([2]; Palmitoleyl, 5 μM): 1636 | mean fluorescence intensity after transfection of EGFP mRNA ([2]; Palmitoleyl, 10 μM): 574 | mean fluorescence intensity after transfection of EGFP mRNA ([2]; Palmitoleyl, 15 μM): −350 | percentage of GFP-silencing relative to siMOCK ([3]; Dodecanal, 5 μM): 27% | percentage of GFP-silencing relative to siMOCK ([3]; Dodecanal, 10 μM): 31% | percentage of GFP-silencing relative to siMOCK ([3]; Dodecanal, 15 μM): 41% | percentage of GFP-silencing relative to siMOCK ([3]; Myristoleyl, 10 μM): 25% | percentage of GFP-silencing relative to siMOCK ([3]; Myristoleyl, 15 μM): 0% | percentage of GFP-silencing relative to siMOCK ([3]; Oleyl, 10 μM): 26% | percentage of GFP-silencing relative to siMOCK ([3]; Oleyl, 15 μM): 15% | percentage of GFP-silencing relative to siMOCK ([3]; Palmitoleyl, 5 μM): 46% | percentage of GFP-silencing relative to siMOCK ([3]; Palmitoleyl, 10 μM): 26% | percentage of GFP-silencing relative to siMOCK ([3]; Palmitoleyl, 15 μM): 24% | percentage of GFP-silencing relative to siMOCK ([3]; Petroselinyl, 10 μM): 34% | percentage of GFP-silencing relative to siMOCK ([3]; Petroselinyl, 15 μM): 13% | percentage of GFP-silencing relative to siMOCK ([4]; Dodecanal, 5 μM): 43% | percentage of GFP-silencing relative to siMOCK ([4]; Dodecanal, 10 μM): 18% | percentage of GFP-silencing relative to siMOCK ([4]; Dodecanal, 15 μM): 57% | percentage of GFP-silencing relative to siMOCK ([4]; Myristoleyl, 5 μM): 41% | percentage of GFP-silencing relative to siMOCK ([4]; Myristoleyl, 10 μM): 37% | percentage of GFP-silencing relative to siMOCK ([4]; Myristoleyl, 15 μM): 9% | percentage of GFP-silencing relative to siMOCK ([4]; Oleyl, 10 μM): 62% | percentage of GFP-silencing relative to siMOCK ([4]; Oleyl, 15 μM): 21% | percentage of GFP-silencing relative to siMOCK ([4]; Palmitoleyl, 5 μM): 26% | percentage of GFP-silencing relative to siMOCK ([4]; Petroselinyl, 5 μM): 43% | percentage of GFP-silencing relative to siMOCK ([4]; Petroselinyl, 10 μM): 43% | percentage of GFP-silencing relative to siMOCK ([4]; Petroselinyl, 15 μM): 33%

CC(=O)N[C@@H](CCCNC(=N)N)C(=O)N[C@@H](CCCCNC(=O)CCCC(=O)NN)C(=O)N[C@@H](Cc1c[nH]cn1)C(=O)N[C@@H](CCCNC(=N)N)C(=O)N[C@@H](CCCCNC(=O)CCCC(=O)NN)C(=O)N[C@@H](CCCCNC(=O)CCCC(=O)NN)C(=O)N[C@@H](Cc1c[nH]cn1)C(N)=O [7.3(L-H), Ac-RK*HRK*K*H-NH2] (Ac-RK([Glutaryl-NHNH2])HRK([Glutaryl-NHNH2])K([Glutaryl-NHNH2])H-NH2)
mean luminescent intensity (RLuc pDNA) ([1]; Myristoleyl, 5 μM): 355590 RLU | mean luminescent intensity (RLuc pDNA) ([1]; Myristoleyl, 10 μM): 584678 RLU | mean luminescent intensity (RLuc pDNA) ([1]; Myristoleyl, 15 μM): 406961 RLU | mean luminescent intensity (RLuc pDNA) ([1]; Oleyl, 5 μM): 142065 RLU | mean luminescent intensity (RLuc pDNA) ([1]; Oleyl, 10 μM): 68668 RLU | mean luminescent intensity (RLuc pDNA) ([1]; Palmitoleyl, 5 μM): 642665 RLU | mean luminescent intensity (RLuc pDNA) ([1]; Palmitoleyl, 10 μM): 519370 RLU | mean luminescent intensity (RLuc pDNA) ([1]; Palmitoleyl, 15 μM): 265272 RLU | mean luminescent intensity (RLuc pDNA) ([1]; Petroselinyl, 5 μM): 466959 RLU | mean luminescent intensity (RLuc pDNA) ([1]; Petroselinyl, 10 μM): 437890 RLU | mean luminescent intensity (RLuc pDNA) ([1]; Petroselinyl, 15 μM): 98868 RLU | mean fluorescence intensity after transfection of EGFP mRNA ([2]; Dodecanal, 5 μM): 1140 | mean fluorescence intensity after transfection of EGFP mRNA ([2]; Dodecanal, 10 μM): 201 | mean fluorescence intensity after transfection of EGFP mRNA ([2]; Dodecanal, 15 μM): 533 | mRNA delivery relative to Lipofectamine MessengerMAX ([2]; HepG2, myristoleyl or petroselinyl aldehydes): able to outperform the activity of Lipofectamine® MessengerMAX | mean fluorescence intensity after transfection of EGFP mRNA ([2]; Myristoleyl, 5 μM): 31364 | mean fluorescence intensity after transfection of EGFP mRNA ([2]; Myristoleyl, 10 μM): 12495 | mean fluorescence intensity after transfection of EGFP mRNA ([2]; Myristoleyl, 15 μM): 3194 | mean fluorescence intensity after transfection of EGFP mRNA ([2]; Oleyl, 5 μM): 4242 | mean fluorescence intensity after transfection of EGFP mRNA ([2]; Oleyl, 10 μM): 1217 | mean fluorescence intensity after transfection of EGFP mRNA ([2]; Oleyl, 15 μM): 1484 | mean fluorescence intensity after transfection of EGFP mRNA ([2]; Palmitoleyl, 5 μM): 8855 | mean fluorescence intensity after transfection of EGFP mRNA ([2]; Palmitoleyl, 10 μM): 3885 | mean fluorescence intensity after transfection of EGFP mRNA ([2]; Petroselinyl, 5 μM): 35842 | mean fluorescence intensity after transfection of EGFP mRNA ([2]; Petroselinyl, 10 μM): 18737 | mean fluorescence intensity after transfection of EGFP mRNA ([2]; Petroselinyl, 15 μM): 4860 | percentage of GFP-silencing relative to siMOCK ([3]; Dodecanal, 5 μM): 10% | percentage of GFP-silencing relative to siMOCK ([3]; Myristoleyl, 5 μM): 45% | percentage of GFP-silencing relative to siMOCK ([3]; Myristoleyl, 10 μM): 45% | percentage of GFP-silencing relative to siMOCK ([3]; Oleyl, 5 μM): 15% | percentage of GFP-silencing relative to siMOCK ([3]; Oleyl, 10 μM): 47% | percentage of GFP-silencing relative to siMOCK ([3]; Oleyl, 15 μM): 46% | percentage of GFP-silencing relative to siMOCK ([3]; Palmitoleyl, 5 μM): 49% | percentage of GFP-silencing relative to siMOCK ([3]; Palmitoleyl, 10 μM): 65% | percentage of GFP-silencing relative to siMOCK ([3]; Palmitoleyl, 15 μM): 40% | percentage of GFP-silencing relative to siMOCK ([3]; Petroselinyl, 5 μM): 5% | percentage of GFP-silencing relative to siMOCK ([4]; Dodecanal, 15 μM): 14% | percentage of GFP-silencing relative to siMOCK ([4]; Myristoleyl, 5 μM): −3% | percentage of GFP-silencing relative to siMOCK ([4]; Palmitoleyl, 10 μM): 6%
